Results taken from US20240262844A1, “PYRIDINIUM SALTS AND METHODS OF USE” (UNIVERSITY OF WYOMING, priority 2023, published 2024).
“And” between values parts separate entries of the source, which are not always exact repeats. Equal values may be shown once. Where a name gives a salt, the structure may show the parent alone.

Experiments:
lysozyme (14.3 kDa) = target: T1, lysozyme (14.3 kDa) (Gallus gallus, UniProt P00698); experiment: Photochemical labeling of lysozyme (LC/MS); type: biochemical, chicken; conditions: for irradiation time to complete reactivity: lysozyme labeling
T1 construct: Lysozyme (from chicken egg white, >40,000 units/mg of protein); purchased Sigma Aldrich; host or cells: chicken egg white
Procedure: General Procedure B: Photochemical Irradiation of Peptides and Proteins: To a 2 mL Pyrex LC/MS vial (Thermo model #03-391-39) were sequentially added solutions containing the desired biomolecule, glutathione (GSH), pyridinium salt, and ammonium acetate (NH4OAc). The resulting solution was diluted to a final volume of 500 μL and then sparged using nitrogen for a minimum of 30 minutes prior to irradiation. The actively sparging solution was then placed in an EvoluChem™ PhotoRedOx Box photoreactor that was equipped with a Kessil, PR160 427 nm LED Lamp and was then irradiated (100% lamp intensity) for the designated time at room temperature while maintaining active sparging. The resultant reaction mixture was then analyzed directly by LC/MS. Analysis of labeling outcomes using LC/MS was performed either by extracted ion chromatogram intensities (method A) or by integrating the area under the peaks associated with peptide content (method B). These values were totaled, and estimated percentages were assigned according to relative intensities of peaks or ion counts.
Labeling of Lysozyme with Pyridinium Salt 2a (Lysozyme-2a Conjugate). Labeling of lysozyme (14.3 kDa) with the pyridinium salt 2a was performed by following general procedure B using the following solutions: lysozyme (27 μL, 182 μM, 10 μM final concentration), pyridinium salt 2a (200 μL, 500 μM, 200 μM final concentration), NH4+OAc (100 μL, 100 mM, pH=6.9, 20 mM final concentration), glutathione (15 μL, 10 mM, 300 μM final concentration), and water (158 μL) with a 100% intensity irradiation time of 60 minutes. The reaction mixture was analyzed directly by LC/MS using method A and was estimated to have proceeded in >95% conversion and a 10.9:1 mono:di labeled ratio and 10% glutathionylation of all unlabeled and labeled protein content was observed.
Labeling of Lysozyme with Pyridinium Salt 2b (Lysozyme-2b Conjugate). Labeling of lysozyme (14.3 kDa) with the pyridinium salt 2b was performed by following general procedure B using the following solutions: lysozyme (19 μL, 262 μM, 10 μM final concentration), 2b (181 μL, 554 μM, 200 μM final concentration), NH4OAc (50 μL, 200 mM, pH=6.9, 20 mM final concentration), glutathione (50 μL, 3 mM, 300 μM final concentration), and water (200 μL) with a 100% intensity irradiation time of 10 minutes. The reaction mixture was analyzed directly by LC/MS using method A and was estimated to have proceeded with 83% conversion. Partial oxidation at biotin obfuscated estimation of both oxidation and glutathionylation. Lysozyme-2b conjugate (retention time (Tr)=2.80-5.17 min).
Labeling of Lysozyme with Pyridinium Salt 2c (Lysozyme-2c Conjugate). Labeling of lysozyme (14.3 kDa) with the pyridinium salt 2c was performed by following general procedure B using the following solutions: lysozyme (19 μL, 262 μM, 10 μM final concentration), pyridinium salt 2c(367 μL, 680 μM, 500 μM final concentration), NH4OAc (50 μL, 200 mM, pH=6.9, 20 mM final concentration), glutathione (50 μL, 3 mM, 300 μM final concentration), and water (14 μL) with a 100% intensity irradiation time of 10 minutes. The reaction mixture was analyzed directly by LC/MS using method A and was estimated to have proceeded with 85% conversion and a 3.7:1 mono:di labeled ratio and 10% glutathionylation of all protein content was observed. Lysozyme-2c conjugate (retention time (Tr)=3.11-5.07 min).
Labeling of Lysozyme with Pyridinium Salt 2d (Lysozyme-2d Conjugate). Labeling of lysozyme (14.3 kDa) with the pyridinium salt 2d was performed by following general procedure B using the following solutions: Lysozyme (16.8 μL, 0.297 mM solution in H2O, final concentration […]), pyridinium salt 2d (91.8 μL, 1.09 mM solution in CH3CN/H2O (2:3), final concentration 200 μM), NH4OAc (50 μL, 200 mM in H2O, final concentration 20 mM, pH 6.9), glutathione (15 μL, 10 mMsolution in H2O, final concentration 300 μM), and water (326.4 μL) with a 100% intensity irradiation time of 20 minutes. […]

[1] = Fluorescence lifetime and emission measurements; type: physicochemical
Procedure: The emission spectra were generated by excitation of a 10 μM solution of either pyridinium salt 2a or pyridinium salt 2b in H2O. Analyses were performed at 375 nm excitation with an emission slit width of 5 nm and an excitation slit width of 5 nm. The emission wavelength was gathered from 400 nm to 600 nm.
FIGS. 9A-9D show fluorescence decay spectra of pyridinium salts 2a and 2b in selected solvents according to at least one embodiment of the present disclosure. Specifically, FIG. 9A is a fluorescence decay spectrum of pyridinium salt 2a in 1,2-dichloroethane, FIG. 9B is a fluorescence decay spectrum of pyridinium salt 2a in CH3CN, FIG. 9C is a fluorescence decay spectrum of pyridinium salt 2a in H2O, and FIG. 9D is a fluorescence decay spectrum of pyridinium salt 2b in H2O. The fluorescent decay spectra were generated with a 1-10 μM solution of pyridinium salt (10 μM for H2O and 1 μM for other solvents) using a GG420 long pass filter and a 375 nm excitation wavelength. The instrument response factor was measured using a highly diluted solution of LUDOX AS-30 colloidal silica in water and a ND1.0 filter. The concentration of LUDOX and the emission slit width were adjusted until the intensity of the instrument response function (IRF) was similar to the fluorescent decay intensity. The procedure given in the EasyLife X User's Manual was followed.

T1 sequence (P00698 19-147): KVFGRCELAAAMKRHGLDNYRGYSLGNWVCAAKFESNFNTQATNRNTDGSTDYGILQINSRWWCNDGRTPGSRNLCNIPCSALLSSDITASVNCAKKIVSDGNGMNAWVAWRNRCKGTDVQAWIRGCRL

SMILES	conversion (lysozyme (14.3 kDa); 10 μM lysozyme, 200 μM pyridinium salt 2a, 300 μM glutathione, 20 mM NH4OAc pH 6.9, 427 nm, 60 minutes)	glutathionylation of all unlabeled and labeled protein content (lysozyme (14.3 kDa); 200 μM pyridinium salt 2a, 300 μM glutathione, 60 minutes irradiation) [%]	irradiation time to complete reactivity (lysozyme (14.3 kDa))	fluorescence lifetime τ1 ([1]; 1,2-dichloroethane, 375 nm excitation) [ns]	fluorescence lifetime τ1 ([1]; acetonitrile, 375 nm excitation) [ns]	diffusion distance of the excited state (2a*) ([1]; aqueous systems) [Å]	fluorescence lifetime τ1 ([1]; water, 375 nm excitation)	fluorescence lifetime τ2 ([1]; water, 375 nm excitation)	relative fluorescence quantum yield (ΦF1) pyridinium salt 2b: pyridinium salt 2a ([1]; 10 μM in H2O, 375 nm excitation)	glutathionylation of all unlabeled and labeled protein content (lysozyme (14.3 kDa); 200 μM pyridinium salt 2d, 300 μM glutathione, 20 minutes irradiation)
COC(=O)N(C)[n+]1c(C)cc(-c2ccc3cc(OC)ccc3c2)cc1C [Pyridinium salt 2a, 1-((methoxycarbonyl)(methyl)amino)-4-(6-methoxynapthalen-2-yl)-2,6-dimethylpyridin-1-ium tetrafluoroborate]	> 95% and 94%	10	about 60 min	4.1	3.3	≤ 30	0.2548 ns and 0.3 ns	3.399 ns and 3.4 ns		
COc1ccc2cc(-c3cc(C)[n+](N(C)C(=O)OCCCCC[C@H]4SC[C@H]5NC(=O)N[C@H]54)c(C)c3)ccc2c1 (stereo in doubt) [Pyridinium salt 2b, 4-(6-methoxynaphthalen-2-yl)-2,6-dimethyl-1-(methyl(((5-((3aR,4R,6aS)-2-oxohexahydro-1H-thieno[3,4-d]imidazol-4-yl)pentyl)oxy)carbonyl)amino)pyridin-1-ium tetrafluoroborate]			less than 10 min				0.5 ns	2.8 ns	3.3	
COc1ccc2cc(-c3cc(C)[n+](N(C)C(=O)OCCCCCCN=[N+]=[N-])c(C)c3)ccc2c1 [Pyridinium salt 2d, 1-((((6-azidohexyl)oxy)carbonyl)(methyl)amino)-4-(6-methoxynaphthalen-2-yl)-2,6-dimethylpyridin-1-ium tetrafluoroborate]										3% and 2%
